Legend:
Format in all cases: binding
panel of 442 kinases [1] = biological target: T1, panel of 442 kinases (Homo sapiens, UniProt Q15349); settings: compound concentration 10 µM; for % Ctrl, RSK3(Kin.Dom.1-N-terminal): kinase RSK3(Kin.Dom.1-N-terminal); for % Ctrl, RSK3(Kin.Dom.2-C-terminal): kinase RSK3(Kin.Dom.2-C-terminal)
T1 construct: purchased KINOMEscan
Description: (§1) We assessed the selectivity of members of this scaffold using the KINOMEscan methodology across a near comprehensive panel of 442 kinases [[18,27]].

panel of 442 kinases [2] = biological target: T2, panel of 442 kinases (Homo sapiens, UniProt Q92772); settings: Compound Concentration 10 µM
T2 construct: purchased KINOMEscan
T2 sequence (Q92772 1-493): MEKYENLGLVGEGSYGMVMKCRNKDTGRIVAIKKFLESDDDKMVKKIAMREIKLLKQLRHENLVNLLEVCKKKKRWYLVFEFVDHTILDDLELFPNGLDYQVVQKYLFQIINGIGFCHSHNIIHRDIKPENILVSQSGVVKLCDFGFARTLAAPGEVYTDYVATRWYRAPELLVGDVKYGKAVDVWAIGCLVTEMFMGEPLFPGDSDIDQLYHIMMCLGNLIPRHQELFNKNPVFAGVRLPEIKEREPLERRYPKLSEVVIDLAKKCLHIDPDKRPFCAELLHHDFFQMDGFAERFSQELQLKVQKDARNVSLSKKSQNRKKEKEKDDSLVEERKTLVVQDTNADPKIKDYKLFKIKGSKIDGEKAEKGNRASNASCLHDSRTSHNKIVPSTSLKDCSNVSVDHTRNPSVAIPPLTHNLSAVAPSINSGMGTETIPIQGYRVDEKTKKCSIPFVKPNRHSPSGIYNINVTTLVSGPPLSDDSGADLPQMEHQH
Description: as §1

panel of 442 kinases [3] = biological target: T3, panel of 442 kinases (Homo sapiens, UniProt Q15831); settings: Compound Concentration 10 µM
T3 construct: purchased KINOMEscan
T3 sequence (Q15831 1-433): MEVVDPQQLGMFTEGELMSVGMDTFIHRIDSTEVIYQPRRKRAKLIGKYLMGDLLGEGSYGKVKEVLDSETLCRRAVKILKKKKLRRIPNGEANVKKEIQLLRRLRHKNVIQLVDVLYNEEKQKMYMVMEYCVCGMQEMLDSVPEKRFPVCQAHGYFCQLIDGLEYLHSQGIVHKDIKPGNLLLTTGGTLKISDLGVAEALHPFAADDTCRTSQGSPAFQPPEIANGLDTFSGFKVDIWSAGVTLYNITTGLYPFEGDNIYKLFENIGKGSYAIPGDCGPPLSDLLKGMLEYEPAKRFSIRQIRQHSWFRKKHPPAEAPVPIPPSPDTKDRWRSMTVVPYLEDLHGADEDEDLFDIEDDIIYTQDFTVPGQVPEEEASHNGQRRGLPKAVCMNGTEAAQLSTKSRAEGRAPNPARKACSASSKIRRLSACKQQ
Description: as §1

T1 sequence (Q15349 whole entry): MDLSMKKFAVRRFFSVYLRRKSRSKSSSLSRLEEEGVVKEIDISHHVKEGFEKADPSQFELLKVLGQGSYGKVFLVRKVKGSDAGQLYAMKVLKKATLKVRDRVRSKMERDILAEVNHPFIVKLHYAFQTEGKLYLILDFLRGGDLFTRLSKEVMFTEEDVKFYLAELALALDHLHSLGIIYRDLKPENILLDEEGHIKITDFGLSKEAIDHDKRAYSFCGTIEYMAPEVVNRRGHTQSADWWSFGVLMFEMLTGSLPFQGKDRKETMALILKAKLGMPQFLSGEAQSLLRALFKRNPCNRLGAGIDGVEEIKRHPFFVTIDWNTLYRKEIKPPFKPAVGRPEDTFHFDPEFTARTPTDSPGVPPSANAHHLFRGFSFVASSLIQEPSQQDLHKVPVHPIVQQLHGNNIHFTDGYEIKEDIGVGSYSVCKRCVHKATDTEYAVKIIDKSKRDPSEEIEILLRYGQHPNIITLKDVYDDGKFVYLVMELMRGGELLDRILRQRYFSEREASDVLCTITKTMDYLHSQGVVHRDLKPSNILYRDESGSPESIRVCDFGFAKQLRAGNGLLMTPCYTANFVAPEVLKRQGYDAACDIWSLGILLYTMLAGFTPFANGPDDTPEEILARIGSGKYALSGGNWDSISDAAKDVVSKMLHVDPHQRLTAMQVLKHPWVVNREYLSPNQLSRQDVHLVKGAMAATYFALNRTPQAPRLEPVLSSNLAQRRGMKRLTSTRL

| Structure (SMILES) | % Ctrl, RSK3(Kin.Dom.1-N-terminal) (panel of 442 kinases [1]) | % Ctrl, RSK3(Kin.Dom.2-C-terminal) (panel of 442 kinases [1]) | KINOMEscan: CDKL2 (panel of 442 kinases [2]) | KINOMEscan: LKB1 (panel of 442 kinases [3]) |
| --- | --- | --- | --- | --- |
| COc1cc(C(=O)N2CCC(N3CCN(C)CC3)CC2)ccc1Nc1ncc2c(n1)N(C1CCCC1)c1ccccc1C(=O)N2C [Compound 25, 11-cyclopentyl-2-((2-methoxy-4-(4-(4-methylpiperazin-1-yl)piperidine-1-carbonyl)phenyl)amino)-5-methyl-5H-benzo[e]pyrimido[5,4-b][1,4]diazepin-6(11H)-one] | 100 % Ctrl | 78 % Ctrl | 95 | 82 |
| COc1cc(C(=O)N2CCC(N3CCN(C)CC3)CC2)ccc1Nc1ncc2c(n1)N1CCc3cccc(c31)C(=O)N2C [Compound 24] | 100 % Ctrl | 13 % Ctrl | – | – |
| COc1cc(C(=O)N2CCC(N3CCN(C)CC3)CC2)ccc1Nc1ncc2c(n1)N(C)c1ccccc1C(=O)N2C [15 (LRRK2-IN-1)] | 83 % Ctrl | 7.5 % Ctrl | 100 | 96 |
| CCOc1cc(C(=O)N2CCC(N3CCN(C)CC3)CC2)ccc1Nc1ncc2c(n1)N(C1CCCC1)c1ccccc1C(=O)N2C [Compound 26] | 100 % Ctrl | 83 % Ctrl | 99 | 100 |

Source: publication PMC3914206
